The text below walks through data of US12485132B2, “GPX4 inhibitors and senolytic compounds and uses thereof” (Rubedo Life Sciences, Inc., priority 2023, dated 2025).

For experiment [1], the target named is T1, GPX4 (Mus musculus, UniProt O70325).
T1 construct: tissue Charles River Laboratories; host or cells: skin of BALB/c mice
Put plainly: Electrophoretic gel mobility shift of GPX4 in skin of treated mice (target engagement). It is filed as in vivo. Particulars: skin of BALB/c mice exposed to mitomycin C; 24 hr treatment. Here is the method: An electrophoretic gel mobility shift assay of GPX4 was applied to determine the level of target engagement of compound 32 as a direct biomarker in tissues. For example, target engagement of compound 32 was assessed in the skin of mice exposed to mitomycin C, a potent inducer of cellular senescence. Following 24 hr treatment with compound 32, the skin of treated BALB/c mice (Charles River Laboratories) was collected and lysed by IGEPAL CA-630 and sodium dodecyl sulfate (SDS) in the presence of a protease inhibitor cocktail (4693132001, Roche) and benzonase (E1014, Sigma-Aldrich). The soluble protein fraction was isolated and heat-denatured in the presence of dithiothreitol (DTT). Proteins were electrophoretically separated using a Bis-Tris protein gel with 12% polyacrylamide concentration. Following the transfer of proteins to a PVDF membrane, the membrane was probed with an anti-GPX4 monoclonal antibody (ab125066, Abcam) and anti-beta-Actin (4970, Cell Signaling Technology), followed by an anti-rabbit IgG HRP conjugated antibody (31460, ThermoFisher). Chemiluminescent following HRP substrate addition (34580, ThermoFisher) was detected by the ChemiDoc XRS+System (BioRad).

The target in experiment [2] is T2, GPX4 (Homo sapiens, UniProt P36969).
T2 sequence (P36969 1-197): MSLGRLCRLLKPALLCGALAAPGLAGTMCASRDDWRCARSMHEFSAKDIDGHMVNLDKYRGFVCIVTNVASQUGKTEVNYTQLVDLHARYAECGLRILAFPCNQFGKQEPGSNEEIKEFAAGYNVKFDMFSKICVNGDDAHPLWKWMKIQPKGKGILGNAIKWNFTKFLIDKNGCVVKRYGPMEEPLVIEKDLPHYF
Put plainly: Competitive binding to GPX4 in A549 cells with biotinylated analog, streptavidin pull-down. It is filed as cell-based. The arrangement: host or cells: A549. Particulars: 2 μM for 2 hours before 2 μM compound 21 for 5 hours. Here is the method:
Binding of compounds 32 and 69 to the target protein GPX4 in cultured cells can be assessed by the use of biotinylated analogs such as compound 21 that retain their cellular activities. Cells or tissue simultaneously or sequentially exposed to compounds 32 and 69 and biotinylated analog 21 can be analyzed for exogenous biotinylated proteins and thereby enables the identification of cellular targets of compounds 32 and 69. The A549 cancer cell line (ATCC) was exposed to 2 μM of compounds 32 and 69 for 2 hours followed by the addition of 2 μM of compound 21 for 5 hours. Cells were collected and lysed by IGEPAL CA-630 and sodium dodecyl sulfate (SDS) in the presence of a protease inhibitor cocktail (4693132001, Roche). The soluble protein fraction was isolated and incubated with Streptavidin Mag Sepharose (28-9857-38, Cytiva) at 4° C. for 16 hours. The streptavidin-unbound fraction was collected allowing for the quantification of the proportion of GPX4 depleted by the biotinylated compound 21 relative to samples not treated with Streptavidin Mag Sepharose. Furthermore, biotinylated proteins were eluted from Streptavidin Mag Sepharose by head-denaturation in the presence of excess biotin (5 mM). […] Chemiluminescent following HRP substrate addition (34580, ThermoFisher) was detected by the ChemiDoc XRS+ System (Bio-Rad). […]

T1 sequence (O70325 whole entry): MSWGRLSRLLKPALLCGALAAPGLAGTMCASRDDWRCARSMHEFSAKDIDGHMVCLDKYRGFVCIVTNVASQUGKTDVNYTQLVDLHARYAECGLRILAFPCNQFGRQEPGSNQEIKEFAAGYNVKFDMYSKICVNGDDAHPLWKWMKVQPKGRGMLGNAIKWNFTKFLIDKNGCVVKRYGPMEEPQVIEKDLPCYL

For the compound `C#CC(F)(F)[C@]1(O)CC[C@H]2[C@@H]3CCC4=CC(=NNC(=O)NC5CC5)CCC4=C3[C@H](c3ccc(C4CC4)cc3)C[C@@]21C` [Compound 32, N-cyclopropyl-2-((8S,11S,13S,14S,17S)-11-(4-cyclopropylphenyl)-17-(1,1-difluoroprop-2-yn-1-yl)-17-hydroxy-13-methyl-1,2,6,7,8,11,12,13,14,15,16,17-dodecahydro-3H-cyclopenta[a]phenanthren-3-ylidene)hydrazine-1-carboxamide], the “GPX4 band shift in skin (target engagement)” value at GPX4 [1] was “slower migrating band for GPX4 was observed”. The “effect of pre-treatment on compound 21 dependent depletion of GPX4 protein” value at GPX4 [2] is “reduces the compound 21 dependent depletion of GPX4 protein”.
